Where a SMILES comes first, the peptide text is derived from it. Bridges are numbered along the chain shown (N, C = ends).

The experiment addresses T1, recombinant human VEGF165 (Homo sapiens, UniProt P15692).
T1 sequence (P15692 27-191 isoform P15692-4): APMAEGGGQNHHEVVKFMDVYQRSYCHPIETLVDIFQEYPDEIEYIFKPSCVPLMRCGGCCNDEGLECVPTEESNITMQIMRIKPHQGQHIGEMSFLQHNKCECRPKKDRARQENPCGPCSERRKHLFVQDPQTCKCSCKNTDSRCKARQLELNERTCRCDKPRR
As to the kind of experiment: VEGF peptide binding assay (competition ELISA, VEGF165 binding to coated VEGFR2/Fc). How it is done:
High-binding half-well 96-well plates (Costar #3690) were coated with recombinant human VEGFR2/Fc (50 ng/well) in 50 μl PBS, and incubated at 4° C. overnight. After washing the plates three times with 1× washing buffer (KPL Cat#50-65-00) and blocking with Superblock (Scytek #AAA500) at room temperature (RT) for 1 hour, VEGF-peptides of the invention were serially diluted (concentrations: 0.128-10,000 nM) in the presence of 25 ng/ml of recombinant human VEGF165 in […] Superblock, and were then added to the 96-well plates and incubated at RT for 1 hour. Peptides of the invention tested in this fashion were all capped at the amino terminus with a C(O)CH3 group and at the carboxyl terminus with a NH2 group. The plates were then washed three times with washing buffer, and a diluted (1:500) biotinylated anti-human VEGF antibody (R&D systems, Cat# BAF293) was added and incubated at RT for 2 hours. After washing the plates, streptavidin HRP conjugate (1:200 in Superblock) (R&D systems, Cat# DY998) was added to detect the bound anti-VEGF antibody, followed by addition of tetramethylbenzidine (TMB) substrate (Pierce, Cat#34021) for color development. The reaction was stopped with 2 M H2SO4. OD450 was measured using SpectraMax (Molecular Device) with a correction wavelength of 540 nm. The data were analyzed using Prism software. OD450 values were plotted as a function of the concentrations of the VEGF peptides. IC50 values, indicative of the potency of the VEGF peptides to inhibit VEGF-VEGFR2 interaction, were obtained using a sigmoid dose-response curve fit in Prism.
The term IC50 denotes the concentration needed to halve the response being measured. For the molecule `CC[C@H](C)[C@@H]1NC(=O)[C@H](CC(=O)O)NC(=O)[C@@H](NC(=O)[C@H](CC(N)=O)NC(=O)[C@@H]2CCCN2C(=O)[C@H](CCC(=O)O)NC(=O)[C@@H](NC(C)=O)C(C)C)CSSC[C@@H](C(=O)N[C@@H](Cc2ccccc2)C(=O)N[C@@H](CCC(=O)O)C(=O)N[C@@H](CCCNC(=N)N)C(=O)N[C@@H](CC(C)C)C(N)=O)NC(=O)[C@H](CCC(=O)O)NC(=O)[C@H](Cc2c[nH]c3ccccc23)NC(=O)[C@H](CCC(=O)O)NC(=O)[C@H](Cc2c[nH]c3ccccc23)NC(=O)[C@H](CCSC)NC(=O)[C@H](C(C)C)NC(=O)[C@H](Cc2c[nH]cn2)NC1=O` [Compound 34, V-E-P-N-C-D-I-H-V-M-W-E-W-E-C-F-E-R-L] (Ac-VEPNCDIHVMWEWECFERL-NH2; disulfide 5-15 (inferred)), the IC50 is 188 nM. Consider `CC[C@H](C)[C@@H]1NC(=O)[C@H](CC(=O)O)NC(=O)[C@@H](NC(=O)[C@H](CC(N)=O)NC(=O)[C@@H]2CCCN2C(=O)[C@H](CCC(=O)O)NC(=O)[C@@H](NC(C)=O)C(C)C)CSSC[C@@H](C(=O)N[C@@H](Cc2ccccc2)C(=O)N[C@@H](CCC(=O)O)C(=O)N[C@@H](CCCNC(=N)N)C(=O)N[C@@H](CC(C)C)C(=O)N[C@@H](Cc2ccc(O)cc2)C(=O)NCC(=O)NCC(=O)N[C@@H](Cc2c[nH]c3ccccc23)C(N)=O)NC(=O)[C@H](CCC(=O)O)NC(=O)[C@H](Cc2c[nH]c3ccccc23)NC(=O)[C@H](C(C)C)NC(=O)[C@H](Cc2c[nH]c3ccccc23)NC(=O)[C@H](CCSC)NC(=O)[C@H](C(C)C)NC(=O)[C@H](Cc2c[nH]cn2)NC1=O` [Compound 35, VEPNCDIHVMWVWECFERLYGGW] (Ac-VEPNCDIHVMWVWECFERLYGGW-NH2; disulfide 5-15 (inferred)), for which the IC50 was 325 nM. The figure for `CC[C@H](C)[C@@H]1NC(=O)[C@H](CC(=O)O)NC(=O)[C@@H](NC(=O)[C@H](CC(N)=O)NC(=O)[C@@H]2CCCN2C(=O)[C@H](CCC(=O)O)NC(=O)[C@@H](NC(C)=O)C(C)C)CSSC[C@@H](C(=O)N[C@@H](Cc2ccccc2)C(=O)N[C@@H](CCC(=O)O)C(=O)N[C@@H](CCCNC(=N)N)C(=O)N[C@@H](CC(C)C)C(=O)N[C@@H](Cc2ccccc2)C(=O)N[C@@H](CCCNC(=N)N)C(=O)N[C@@H](CCC(=O)O)C(=O)N[C@@H](C)C(N)=O)NC(=O)[C@H](C(C)C)NC(=O)[C@H](Cc2c[nH]c3ccccc23)NC(=O)[C@H](C(C)C)NC(=O)[C@H](Cc2c[nH]c3ccccc23)NC(=O)[C@H](CCSC)NC(=O)[C@H](C(C)C)NC(=O)[C@H](Cc2c[nH]cn2)NC1=O` [Compound 36, VEPNCDIHVMWVWVCFERLFREA] (Ac-VEPNCDIHVMWVWVCFERLFREA-NH2; disulfide 5-15 (inferred)) is 172 nM; for `CC[C@H](C)[C@@H]1NC(=O)[C@H](CC(=O)O)NC(=O)[C@@H](NC(=O)[C@H](CC(N)=O)NC(=O)[C@@H]2CCCN2C(=O)[C@H](CCC(=O)O)NC(=O)[C@@H](NC(C)=O)C(C)C)CSSC[C@@H](C(=O)N[C@@H](Cc2ccccc2)C(=O)N[C@@H](CCC(=O)O)C(=O)N[C@@H](CCCNC(=N)N)C(=O)N[C@@H](CC(C)C)C(=O)N[C@@H](Cc2ccccc2)C(=O)N[C@@H](CCCCN)C(=O)N[C@@H](CCC(=O)O)C(=O)N[C@@H](C)C(N)=O)NC(=O)[C@H](C(C)C)NC(=O)[C@H](Cc2c[nH]c3ccccc23)NC(=O)[C@H](C(C)C)NC(=O)[C@H](Cc2c[nH]c3ccccc23)NC(=O)[C@H](CCSC)NC(=O)[C@H](C(C)C)NC(=O)[C@H](Cc2c[nH]cn2)NC1=O` [Compound 37, VEPNCDIHVMWVWVCFERLFKEA] (Ac-VEPNCDIHVMWVWVCFERLFKEA-NH2; disulfide 5-15 (inferred)) it is 59 nM.

(Values after patent publication US8937048B2, “Anti-angiogenic compounds” (Covx Technologies Ireland, Limited, priority 2008, dated 2015).)
